Reference: US20160095843A1, “PYRAZOLOPYRROLIDINE DERIVATIVES AND THEIR USE IN THE TREATMENT OF DISEASE” (NOVARTIS AG, priority 2013, published 2016)

Columns and labels:
K-562 cells = experiment: Cell growth inhibition assay (CellTiter-Glo), K-562; assay type: cell-based, human; conditions: for GI50: Homo sapiens, K562
Procedure, shortened: (§1)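 Leukemia lines grown in their own media were exposed for 4 days at 37° C. to 3-fold serial dilutions from 10 μM (0.1% DMSO). Viability by CellTiter-Glo ATP luminescence, corrected for background and day-0 plate; IC50 and TGI from four-parameter fit against vehicle (100%) and medium (−100%).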

MV-4-11 cells = experiment: Cell growth inhibition assay (CellTiter-Glo), MV-4-11; assay type: cell-based; conditions: Homo sapiens, MV4-11
Procedure, shortened: as §1

THP-1 cells = experiment: Cell growth inhibition assay (CellTiter-Glo), THP-1; assay type: cell-based; conditions: Homo sapiens
Procedure, shortened: as §1

Cc1nn(C2CC2)c2c1C(c1cccc(C(F)(F)F)c1)N(c1cc(C)c(=O)n(C)c1)C2=O (stereo not drawn) [Example 96, 1-cyclopropyl-5-(1,5-dimethyl-6-oxo-1,6-dihydropyridin-3-yl)-3-methyl-4-(3-(trifluoromethyl)phenyl)-4,5-dihydropyrrolo[3,4-c]pyrazol-6(1H)-one]
GI50 (K-562 cells): 5900 nM | GI50 (MV-4-11 cells): 894 nM | GI50 (THP-1 cells): 1260 nM

Cc1nn(C2CC2)c2c1C(c1ccc(C(F)(F)F)cc1)N(c1cc(C)c(=O)n(C)c1)C2=O (stereo not drawn) [Example 97, 1-cyclopropyl-5-(1,5-dimethyl-6-oxo-1,6-dihydropyridin-3-yl)-3-methyl-4-(4-(trifluoromethyl)phenyl)-4,5-dihydropyrrolo-[3,4-c]pyrazol-6(1H)-one]
GI50 (K-562 cells): 684 nM | GI50 (MV-4-11 cells): 68 nM | GI50 (THP-1 cells): 164 nM

COc1ncc(-n2nc(C)c3c2C(=O)N(c2cc(C)c(=O)n(C)c2)[C@H]3c2ccc(Cl)cc2)c(OC)n1 [Example 99, (S)-4-(4-chlorophenyl)-1-(2,4-dimethoxypyrimidin-5-yl)-5-(1,5-dimethyl-6-oxo-1,6-dihydropyridin-3-yl)-3-methyl-4,5-dihydropyrrolo-[3,4-c]pyrazol-6(1H)-one]
IC (TGI) (K-562 cells): >10000 nM | GI50 (K-562 cells): > 10000 nM | GI50 (MV-4-11 cells): 2000 nM | GI50 (THP-1 cells): 2840 nM

COc1ncc(-n2nc(C)c3c2C(=O)N(c2cc(C)c(=O)n(C)c2)[C@@H]3c2ccc(Cl)cc2)c(OC)n1 [Example 100, (R)-4-(4-chlorophenyl)-1-(2,4-dimethoxypyrimidin-5-yl)-5-(1,5-dimethyl-6-oxo-1,6-dihydropyridin-3-yl)-3-methyl-4,5-dihydropyrrolo[3,4-c]pyrazol-6(1H)-one]
GI50 (K-562 cells): 264 nM | GI50 (MV-4-11 cells): 40.5 nM | GI50 (THP-1 cells): 88 nM

COc1ncccc1-n1nc(C)c2c1C(=O)N(c1cc(C)c3nnc(C)n3c1)C2c1ccc(Cl)cc1 (stereo not drawn) [Example 101, 4-(4-chlorophenyl)-5-(3,8-dimethyl-[1,2,4]triazolo[4,3-a]pyridin-6-yl)-1-(2-methoxypyridin-3-yl)-3-methyl-4,5-dihydropyrrolo[3,4-c]pyrazol-6(1H)-one]
GI50 (K-562 cells): 261 nM | GI50 (MV-4-11 cells): 25.7 nM | GI50 (THP-1 cells): 53 nM

Cc1nn(C2CC2)c2c1C(c1ccc(Cl)cc1)N(c1ccc3nnn(C)c3n1)C2=O (stereo not drawn) [Example 102, 4-(4-chlorophenyl)-1-cyclopropyl-3-methyl-5-(3-methyl-3H-[1,2,3]triazolo[4,5-b]-pyridin-5-yl)-4,5-dihydropyrrolo-[3,4-c]pyrazol-6(1H)-one]
GI50 (K-562 cells): 653 nM | GI50 (MV-4-11 cells): 87.5 nM | GI50 (THP-1 cells): 140 nM

Cc1nn(C(C)C)c2c1[C@H](c1ccc(Cl)cc1)N(c1cc(C)c(=O)n(C)c1)C2=O [Example 103, (S)-4-(4-chlorophenyl)-5-(1,5-dimethyl-6-oxo-1,6-dihydropyridin-3-yl)-1-isopropyl-3-methyl-4,5-dihydropyrrolo-[3,4-c]pyrazol-6(1H)-one]
GI50 (K-562 cells): > 10000 nM | GI50 (MV-4-11 cells): 3590 nM | GI50 (THP-1 cells): 7290 nM

Cc1nn(C(C)C)c2c1[C@@H](c1ccc(Cl)cc1)N(c1cc(C)c(=O)n(C)c1)C2=O [Example 104, (R)-4-(4-chlorophenyl)-5-(1,5-dimethyl-6-oxo-1,6-dihydropyridin-3-yl)-1-isopropyl-3-methyl-4,5-dihydropyrrolo[3,4-c]pyrazol-6(1H)-one]
IC (TGI) (K-562 cells): >10000 nM | GI50 (K-562 cells): 57.6 nM | GI50 (MV-4-11 cells): 9.97 nM | GI50 (THP-1 cells): 26.2 nM

CCc1nn(C)c2c1C(c1ccc(Cl)cc1)N(c1cc(OC)c3nnc(C)n3c1)C2=O (stereo not drawn) [Example 105, 4-(4-chlorophenyl)-3-ethyl-5-(8-methoxy-3-methyl-[1,2,4]triazolo[4,3-a]pyridin-6-yl)-1-methyl-4,5-dihydropyrrolo-[3,4-c]pyrazol-6(1H)-one]
GI50 (K-562 cells): 729 nM | GI50 (MV-4-11 cells): 102 nM | GI50 (THP-1 cells): 188 nM

CCc1nn(C2CC2)c2c1[C@H](c1ccc(Cl)cc1)N(c1cc(C)c3nnc(C)n3c1)C2=O [Example 106, (S)-4-(4-chlorophenyl)-1-cyclopropyl-5-(3,8-dimethyl-[1,2,4]triazolo[4,3-a]pyridin-6-yl)-3-ethyl-4,5-dihydropyrrolo-[3,4-c]pyrazol-6(1H)-one]
IC (TGI) (K-562 cells): >10000 nM | GI50 (K-562 cells): 4060 nM | GI50 (MV-4-11 cells): 649 nM | GI50 (THP-1 cells): 2110 nM

CCc1nn(C2CC2)c2c1[C@@H](c1ccc(Cl)cc1)N(c1cc(C)c3nnc(C)n3c1)C2=O [Example 107, (R)-4-(4-chlorophenyl)-1-cyclopropyl-5-(3,8-dimethyl-[1,2,4]triazolo[4,3-a]pyridin-6-yl)-3-ethyl-4,5-dihydropyrrolo-[3,4-c]pyrazol-6(1H)-one]
IC (TGI) (K-562 cells): >10000 nM | GI50 (K-562 cells): 37.9 nM | GI50 (MV-4-11 cells): 7.28 nM | GI50 (THP-1 cells): 8.18 nM

CCc1nn(CCOCC(F)(F)F)c2c1C(c1ccc(Cl)cc1)N(c1cc(OC)c3nnc(C)n3c1)C2=O (stereo not drawn) [Example 108, 4-(4-chlorophenyl)-3-ethyl-5-(8-methoxy-3-methyl-[1,2,4]triazolo[4,3-a]pyridin-6-yl)-1-(2-(2,2,2-trifluoroethoxy)ethyl)-4,5-dihydropyrrolo[3,4-c]pyrazol-6(1H)-one]
GI50 (K-562 cells): 1510 nM | GI50 (MV-4-11 cells): 267 nM | GI50 (THP-1 cells): 397 nM

COc1ncccc1-n1nc(C)c2c1C(=O)N(c1cc(C)c3nnn(C)c3n1)C2c1ccc(Cl)cc1 (stereo not drawn) [Example 109, 4-(4-chlorophenyl)-5-(3,7-dimethyl-3H-[1,2,3]triazolo[4,5-b]pyridin-5-yl)-1-(2-methoxypyridin-3-yl)-3-methyl-4,5-dihydropyrrolo-[3,4-c]pyrazol-6(1H)-one]
GI50 (K-562 cells): 269 nM | GI50 (MV-4-11 cells): 18.6 nM | GI50 (THP-1 cells): 39.8 nM

Cc1nn(C2CC2)c2c1C(c1ccc(Cl)cc1)N(c1cc(C)c3nnn(C)c3n1)C2=O (stereo not drawn) [Example 110, 4-(4-chlorophenyl)-1-cyclopropyl-5-(3,7-dimethyl-3H-[1,2,3]triazolo[4,5-b]pyridin-5-yl)-3-methyl-4,5-dihydropyrrolo-[3,4-c]pyrazol-6(1H)-one]
GI50 (K-562 cells): 50.3 nM | GI50 (MV-4-11 cells): 5.25 nM | GI50 (THP-1 cells): 10.6 nM

COc1ncccc1-n1nc(C)c2c1C(=O)N(c1cc(C)c3nnc(C)n3n1)C2c1ccc(Cl)cc1 (stereo not drawn) [Example 111, 4-(4-chlorophenyl)-5-(3,8-dimethyl-[1,2,4]triazolo[4,3-b]pyridazin-6-yl)-1-(2-methoxypyridin-3-yl)-3-methyl-4,5-dihydropyrrolo-[3,4-c]pyrazol-6(1H)-one]
GI50 (K-562 cells): 177 nM | GI50 (MV-4-11 cells): 16.2 nM | GI50 (THP-1 cells): 22 nM

Cc1nn(C2CC2)c2c1C(c1ccc(Cl)cc1)N(c1cc(N(C)C(=O)OC(C)(C)C)c3nnc(C)n3n1)C2=O (stereo not drawn) [Example 112, tert-butyl (6-(4-(4-chlorophenyl)-1-cyclopropyl-3-methyl-6-oxopyrrolo[3,4-c]pyrazol-5(1H,4H,6H)-yl)-3-methyl-[1,2,4]triazolo[4,3-b]pyridazin-8-yl)(methyl)carbamate]
GI50 (K-562 cells): 2810 nM | GI50 (MV-4-11 cells): 758 nM | GI50 (THP-1 cells): 1280 nM

Cc1nn(-c2ccnn2C)c2c1C(c1ccc(Cl)cc1)N(c1cc(C)c3nnc(C)n3n1)C2=O (stereo not drawn) [Example 114, 4-(4-chlorophenyl)-5-(3,8-dimethyl-[1,2,4]triazolo[4,3-b]pyridazin-6-yl)-3-methyl-1-(1-methyl-1H-pyrazol-5-yl)-4,5-dihydropyrrolo-[3,4-c]pyrazol-6(1H)-one]
GI50 (K-562 cells): 187 nM | GI50 (MV-4-11 cells): 20.4 nM | GI50 (THP-1 cells): 30.4 nM

CCn1nc2c(c1C)C(c1ccc(Cl)cc1)N(c1cc(C)c3nnc(C)n3c1)C2=O (stereo not drawn) [Example 115, 4-(4-chlorophenyl)-5-(3,8-dimethyl-[1,2,4]triazolo[4,3-a]pyridin-6-yl)-2-ethyl-3-methyl-4,5-dihydropyrrolo-[3,4-c]pyrazol-6(2H)-one]
GI50 (K-562 cells): 142 nM | GI50 (MV-4-11 cells): 22.4 nM | GI50 (THP-1 cells): 34.8 nM

CCn1nc(C)c2c1C(=O)N(c1cc(C)c3nnc(C)n3c1)C2c1ccc(Cl)cc1 (stereo not drawn) [Example 116, 4-(4-chlorophenyl)-5-(3,8-dimethyl-[1,2,4]triazolo[4,3-a]pyridin-6-yl)-1-ethyl-3-methyl-4,5-dihydropyrrolo-[3,4-c]pyrazol-6(1H)-one]
GI50 (K-562 cells): 81.2 nM | GI50 (MV-4-11 cells): 12.5 nM | GI50 (THP-1 cells): 18.8 nM

Cc1cc(N2C(=O)c3c(c(C4CC4)nn3-c3ccnn3C)C2c2ccc(Cl)cc2)cn2c(C)nnc12 (stereo not drawn) [Example 117, 4-(4-chlorophenyl)-3-cyclopropyl-5-(3,8-dimethyl-[1,2,4]triazolo[4,3-a]pyridin-6-yl)-1-(1-methyl-1H-pyrazol-5-yl)-4,5-dihydropyrrolo-[3,4-c]pyrazol-6(1H)-one]
GI50 (K-562 cells): 150 nM | GI50 (MV-4-11 cells): 18.6 nM | GI50 (THP-1 cells): 31.8 nM

Cc1nn(C2CC2)c2c1[C@@H](c1ccc(Cl)cc1)N(c1cc(C)c3nnc(C)n3c1)C2=O [Example 119, (R)-4-(4-chlorophenyl)-1-cyclopropyl-5-(3,8-dimethyl-[1,2,4]triazolo[4,3-a]pyridin-6-yl)-3-methyl-4,5-dihydropyrrolo-[3,4-c]pyrazol-6(1H)-one]
IC (TGI) (K-562 cells): >10000 nM | GI50 (K-562 cells): 62 nM | GI50 (MV-4-11 cells): 6.15 nM | GI50 (THP-1 cells): 9.45 nM

Cc1nn(-c2ccnn2C)c2c1[C@@H](c1ccc(Cl)cc1)N(c1cc(C)c(=O)n(C)c1)C2=O [Example 120, (R)-4-(4-chlorophenyl)-5-(1,5-dimethyl-6-oxo-1,6-dihydropyridin-3-yl)-3-methyl-1-(1-methyl-1H-pyrazol-5-yl)-4,5-dihydropyrrolo-[3,4-c]pyrazol-6(1H)-one]
IC (TGI) (K-562 cells): >10000 nM | GI50 (K-562 cells): 402 nM | GI50 (MV-4-11 cells): 55.7 nM | GI50 (THP-1 cells): 79.2 nM

Cc1nn(-c2ccnn2C)c2c1[C@H](c1ccc(Cl)cc1)N(c1cc(C)c(=O)n(C)c1)C2=O [Example 121, (S)-4-(4-chlorophenyl)-5-(1,5-dimethyl-6-oxo-1,6-dihydropyridin-3-yl)-3-methyl-1-(1-methyl-1H-pyrazol-5-yl)-4,5-dihydropyrrolo-[3,4-c]pyrazol-6(1H)-one]
GI50 (K-562 cells): 9710 nM | GI50 (MV-4-11 cells): 830 nM | GI50 (THP-1 cells): 2110 nM
